Assay results: patent US9562043B2 (EA Pharma Co., Ltd., priority 2012, dated 2017)

These compounds were tested against T1, human TRPA1 (Homo sapiens, UniProt O75762) (assay: Measurement of TRPA1 antagonist activity (intracellular calcium increase, FLIPR)). Settings: 293T cells transfected with human TRPA1 expression plasmid, allylisothiocyanate 20 μM stimulation, calcium fluorescence, read-out: antagonism hTRPA1.
T1 construct: host or cells: human embryonic kidney-derived 293T cells, transient transfection with pcDNA3.1/zeo(+) plasmid
T1 sequence (O75762 whole entry): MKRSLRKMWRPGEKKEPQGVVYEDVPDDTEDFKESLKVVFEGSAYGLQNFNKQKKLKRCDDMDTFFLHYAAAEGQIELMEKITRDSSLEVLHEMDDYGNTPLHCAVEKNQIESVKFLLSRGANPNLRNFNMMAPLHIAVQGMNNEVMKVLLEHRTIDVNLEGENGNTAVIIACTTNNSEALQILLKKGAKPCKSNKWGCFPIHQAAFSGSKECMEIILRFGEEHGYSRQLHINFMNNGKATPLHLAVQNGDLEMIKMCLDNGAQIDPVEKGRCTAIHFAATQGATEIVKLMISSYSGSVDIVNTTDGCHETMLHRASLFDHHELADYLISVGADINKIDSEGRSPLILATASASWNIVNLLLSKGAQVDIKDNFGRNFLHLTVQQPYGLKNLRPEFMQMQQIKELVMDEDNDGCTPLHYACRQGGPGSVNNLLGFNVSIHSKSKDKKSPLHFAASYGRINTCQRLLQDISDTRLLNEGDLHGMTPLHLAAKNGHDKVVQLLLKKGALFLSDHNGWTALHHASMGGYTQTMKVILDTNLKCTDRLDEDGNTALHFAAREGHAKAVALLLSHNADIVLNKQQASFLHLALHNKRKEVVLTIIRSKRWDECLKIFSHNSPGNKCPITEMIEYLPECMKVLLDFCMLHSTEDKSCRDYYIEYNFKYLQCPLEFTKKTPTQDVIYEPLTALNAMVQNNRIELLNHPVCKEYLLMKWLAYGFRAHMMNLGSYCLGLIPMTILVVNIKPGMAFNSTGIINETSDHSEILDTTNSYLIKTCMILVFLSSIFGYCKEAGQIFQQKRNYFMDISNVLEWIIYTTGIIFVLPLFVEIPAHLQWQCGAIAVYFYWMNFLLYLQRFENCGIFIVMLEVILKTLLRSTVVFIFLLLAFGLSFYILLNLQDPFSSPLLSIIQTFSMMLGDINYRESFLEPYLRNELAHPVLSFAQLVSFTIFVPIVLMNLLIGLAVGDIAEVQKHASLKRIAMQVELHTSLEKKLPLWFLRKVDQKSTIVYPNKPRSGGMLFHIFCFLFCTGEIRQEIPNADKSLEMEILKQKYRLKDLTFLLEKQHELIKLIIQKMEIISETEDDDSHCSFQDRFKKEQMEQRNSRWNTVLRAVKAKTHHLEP
Format: cell-based
Text: Measurement of TRPA1 Antagonist Activity
Human TRPA1 Expression Plasmid
As cDNA encoding human TRPA1 (GenBank accession No. […]), a commercially available product was purchased (manufactured by Kazusa DNA Research Institute, clone No.: pFN21AB7348, item No.: FHC07217). Using this as a template, full-length human TRPA1 gene was amplified using the primer sequences shown below, by reaction using DNA polymerase (manufactured by Stratagene, trade name: PfuUltra High-Fidelity DNA Polymerase).
A recognition site (underlined) of restriction enzyme HindIII was added to the 5′ side, and XbaI site (underlined) was added to the 3′ side, and GTT of the template sequence was changed to termination codon TAG (bold). The obtained double stranded DNA was enzyme-digested with HindIII and XbaI, and introduced into a multicloning site of expression plasmid pcDNA3.1/zeo(+) (manufactured by Invitrogen) to give a human TRPA1 expression plasmid.
Human embryonic kidney-derived 293T cells were cultured in Dulbecco's Modified Eagle Medium containing 10% fetal bovine serum, 10 unit penicillin, and 10 μg streptomycin, plated on a petri dish having a diameter of 10 cm at 3×10^6 cells, and cultured for 24 hr. A medium containing a reduced amount of serum (manufactured by Invitrogen, trade name: OPTI-MEM, 600 μL), a gene insertion reagent (manufactured by Mirus Bio, trade name: Mirus TransIT-293, 18 μL), and human TRPA1 expression plasmid (6 μg) were mixed, the total amount of the mixture was added to the cells on the petri dish to allow for gene transfer. The cells were recovered about 8 hr later, plated on a poly-D-lysine coated 384 well black/clear bottom plate at 7,500-12,000 cells/well, and cultured overnight.
Measurement of Intracellular Calcium Increase
The 384 well plate was recovered, and the medium was removed. A calcium-bonded fluorescent indicator (manufactured by Molecular Device, trade name: Calcium4 Assay Kit, 40 μL) dissolved in assay buffer (1×HBSS, 20 mM HEPES, pH 7.2) was added, and the cells were stained in a 37° C. incubator for 1 hr. The cells were taken out at room temperature and left standing for 15 min or more. A test substance (10 μL) was added by a 384 well type dispenser, and the mixture was incubated at room temperature for 10 min. Then, allylisothiocyanate (12.5 μL) at a final concentration of 20 μM was added by a fluorescence imaging plate reader (manufactured by Molecular Device, FLIPR), and changes in the relative fluorescence intensity were measured for 5 min.
Test Substance Preparation
The test substance was dissolved in dimethyl sulfoxide and serially diluted with an assay buffer containing 0.1% bovine serum albumin (1×HBSS, 20 mM HEPES, pH 7.2) to a 5-fold concentration of the evaluation concentration. Allylisothiocyanate, which is a known TRPA1 activator, was dissolved in dimethyl sulfoxide to 100 mM, and further diluted 5-fold (100 μM) of the final concentration, like the test substance.
Calculation of Antagonist Activity
Under the test substance-free conditions, the maximum variation range of the fluorescence intensity before and after allylisothiocyanate stimulation was defined to be 100% activity rate, and the variation range before and after buffer stimulation was defined as 0% activity rate. The activity rate on addition of the test substance was determined, and the numerical value obtained by subtracting the activity rate from 100 was defined to be an inhibitory rate. IC50, which is the concentration of the test substance necessary for reaching the 50% inhibitory rate, was calculated from the sigmoid approximate curve by a spreadsheet software Excel-Fit.
An IC50 of 0.43 µM was found for `O=C(NCc1nc(-c2cccc(F)c2)cs1)[C@@H]1CCCN1S(=O)(=O)c1ccc(Cl)s1` [compound 7, (2S)-1-(5-chlorothiophene-2-sulfonyl)-N-{[4-(3-fluorophenyl)thiazol-2-yl]methyl}pyrrolidine-2-carboxamide] in this work. An IC50 of 0.17 µM was found for `O=C(NCc1nc(-c2ccc(C(F)(F)F)cc2)cs1)[C@@H]1CCCN1S(=O)(=O)c1cc(F)cc(F)c1` [compound 54, (2S)-1-(3,5-difluorophenyl)sulfonyl-N-({4-[4-(trifluoromethyl)-phenyl]thiazol-2-yl}methyl)pyrrolidine-2-carboxamide] in this work. An IC50 of 2.79 µM was found for `O=C(NCc1nc(-c2ccc(OC(F)(F)F)cc2)cs1)[C@@H]1CCN1S(=O)(=O)c1ccc(Cl)s1` [compound 32, (2S)-1-[5-chlorothiophene-2-sulfonyl)-N-({4-[4-(trifluoromethoxy)phenyl]-thiazol-2-yl}methyl)azetidine-2-carboxamide] in this work. An IC50 of 0.15 µM was found for `Cc1sc(CNC(=O)[C@@H]2CCCN2S(=O)(=O)c2ccc(Cl)s2)nc1-c1ccc(C(F)(F)F)cc1` [compound 9, (2S)-1-(5-chlorothiophene-2-sulfonyl)-N-({5-methyl-4-[4-(trifluoromethyl)phenyl]-thiazol-2-yl}methyl)-pyrrolidine-2-carboxamide] in this work. An IC50 of 0.27 µM was found for `O=C(NCc1nc(-c2ccc(C(F)(F)F)cc2)cs1)[C@@H]1CCCN1S(=O)(=O)c1cc(Br)c(Cl)s1` [compound 40, (2S)-1-(4-bromo-5-chlorothiophene-2-sulfonyl) ({4-[4-{trifluoromethyl)-phenyl]thiazol-2-yl}methyl) pyrrolidine-2-carboxamide] in this work. An IC50 of 4.44 µM was found for `Cc1cc(CNC(=O)[C@@H]2CCCN2S(=O)(=O)c2ccc(Cl)s2)nn1-c1ccc(Cl)cc1` [compound 17, (2S)-1-(5-chlorothiophene-2-sulfonyl)-N-{[1-(4-chlorophenyl)-5-methylpyrazol-3-yl]methyl)pyrrolidine-2-carboxamide] in this work. An IC50 of 0.98 µM was found for `O=C(NCc1nc(-c2ccc(C(F)(F)F)cc2)cs1)[C@@H]1CCCN1S(=O)(=O)c1ccc(Cl)cc1` [compound 38] in this work. An IC50 of 2.69 µM was found for `O=C(NCc1nc(-c2ccc(C(F)(F)F)cc2)cs1)[C@@H]1C[C@@H](O)CN1S(=O)(=O)c1ccc(Cl)s1` [compound 28, (2S,4R)-1-(5-chlorothiophene-2-sulfonyl)-N-({4-[4-(trifluoromethyl)phenyl]-thiazol-2-yl}methyl)-hydroxypyrrolidine-2-carboxamide] in this work. An IC50 of 2.7 µM was found for `O=C(NCc1nc(-c2ccc(C(F)(F)F)cc2)cs1)[C@@H]1CCCN1S(=O)(=O)c1cccc(Cl)c1` [compound 43] in this work. An IC50 of 0.52 µM was found for `CC1(C)SCN(S(=O)(=O)c2ccc(Cl)s2)[C@@H]1C(=O)NCc1nc(-c2ccc(C(F)(F)F)cc2)cs1` [compound 30, (4R)-3-(5-chlorothiophene-2 sulfonyl)-N-({4-[4-(trifluoromethyl)phenyl]-thiazol-2-yl}methyl)-5,5-dimethyl-1,3-thiazolidine-4 carboxamide] in this work. An IC50 of 0.26 µM was found for `O=C(NCc1nc(-c2ccc(C(F)(F)F)cc2)co1)[C@@H]1C=CCN1S(=O)(=O)c1ccc(Cl)s1` [compound 25, (2S)-1-(5-chlorothiophene-2-3ulfonyl)-N-({4-[4-(trifluoromethyl)phenyl]-oxazol-2-yl}methyl)-3,4-didehydropyrrolidine-2-carboxamide] in this work. An IC50 of 0.18 µM was found for `O=C(NCc1csc(-c2ccc(C(F)(F)F)cc2)n1)[C@@H]1C=CCN1S(=O)(=O)c1ccc(Cl)s1` [compound 26, (2S)-1-(5-chlorothiophene-2-sulfonyl)-N-({2-[4-(trifluoromethyl)phenyl]-thiazol-4-yl}methyl)-3,4-didehydropyrrolidine-2-carboxamide] in this work. An IC50 of 0.14 µM was found for `Cc1sc(CNC(=O)[C@@H]2C=CCN2S(=O)(=O)c2ccc(Cl)s2)nc1-c1ccc(C(F)(F)F)cc1` [compound 23, (2S)-1-(5-chlorothiophene-2-sulfonyl)-N-({5-methyl-4-[4-(trifluoromethyl)phenyl]-thiazol-2-yl}methyl)-3,4-didehydropyrrolidine-2-carboxamide] in this work. An IC50 of 0.16 µM was found for `O=C(NCc1nc(-c2ccc(OC(F)(F)F)cc2)cs1)[C@@H]1CCCN1S(=O)(=O)c1ccc(Cl)s1` [compound 3, (2S)-1-(5-chlorothiophene-2-sulfonyl)-N-({4-[4-(trifluoromethoxy)phenyl]-thiazol-2-yl}methyl)-pyrrolidine-2-carboxamide] in this work. An IC50 of 0.96 µM was found for `O=C(NCc1nc(-c2ccc(C(F)(F)F)cc2)cs1)[C@@H]1CC(F)(F)CN1S(=O)(=O)c1ccc(Cl)s1` [compound 27, (2S)-1-(5-chlorothiophene-2-sulfonyl)-N-({4-[4-(trifluoromethyl)phenyl]-thiazol-2-yl}methyl)-4,4-difluoropyrrolidine-2-carboxamide] in this work. An IC50 of 0.24 µM was found for `O=C(NCc1nc(-c2ccc(C(F)(F)F)cc2)no1)[C@@H]1CCCN1S(=O)(=O)c1ccc(Cl)s1` [compound 15, (2S)-1-(5-chlorothiophene-2-sulfonyl)-N-({3-[4-(trifluoromethyl)phenyl]-1,2,4-oxadiazol-5-yl}methyl)pyrrolidine-2-carboxamide] in this work. An IC50 of 0.99 µM was found for `O=C(NCc1nc(-c2ccc(C(F)(F)F)cc2)cs1)[C@@H]1CCCN1S(=O)(=O)c1ccco1` [compound 48, (2S)-1-(2-furylsulfonyl)-N-({4-[4-(trifluoromethyl)-phenyl]thiazol-2-yl}methyl)-pyrrolidine-2-carboxamide] in this work. An IC50 of 0.1 µM was found for `O=C(NCc1nc(-c2ccc(C(F)(F)F)cc2)cs1)[C@@H]1CCCN1S(=O)(=O)c1cccc(F)c1` [compound 50, (2S)-1-(3-fluorophenyl) sulfonyl-N-({4-(4-(trifluoro-methyl)phenyl]thiazol-2-yl)-methyl)pyrrolidine-2-carboxamide] in this work. An IC50 of 1.9 µM was found for `Cc1ccc(S(=O)(=O)N2CCC[C@H]2C(=O)NCc2nc(-c3ccc(C(F)(F)F)cc3)cs2)s1` [compound 41, (2S)-1-(5-methylthiophene-2-sulfonyl)-N-({4-[4-(trifluoro-methyl)phenyl]thiazol-2-yl}-methyl)pyrrolidine-2-carboxamide] in this work. An IC50 of 4.6 µM was found for `O=C(NCc1nc(-c2ccc(C(F)(F)F)cc2)cs1)[C@@H]1CCCN1S(=O)(=O)c1ccc(F)cc1F` [compound 53, (2S)-1-(2,4-difluorophenyl)sulfonyl-N-{{4-[4-(trifluoromethyl)-phenyl]thiazol-2-yl}methyl)pyrrolidine-2-carboxamide] in this work. An IC50 of 0.47 µM was found for `C[C@H](NC(=O)[C@@H]1C=CCN1S(=O)(=O)c1ccc(Cl)s1)c1nc(-c2ccc(C(F)(F)F)cc2)cs1` [compound 24, (2S)-1-(5-chlorothiophene-2-sulfonyl)-N-[(1S)-1-{4-[4 (trifluoromethyl)phenyl]-thiazol-2-yl)ethyl]-3,4-didehydropyrrolidine-2-carboxamide] in this work. An IC50 of 0.17 µM was found for `O=C(NCc1nc(-c2ccc(OC(F)(F)F)c(F)c2)cs1)[C@@H]1CCCN1S(=O)(=O)c1ccc(Cl)s1` [compound 8, (2S)-1-(5-chlorothiophene-2-sulfonyl)-N-({4-[3-fluoro-4-(trifluoromethoxy)-phenyl]thiazol-2-yl}methyl)-pyrrolidine-2-carboxamide] in this work. An IC50 of 0.84 µM was found for `O=C(NCc1nc(-c2cccc(C(F)(F)F)c2)cs1)[C@@H]1CCCN1S(=O)(=O)c1ccc(Cl)s1` [compound 6, (2S)-1-(5-chlorothiophene-2-sulfonyl)-N-({4-[3-(trifluoromethyl)phenyl]-thiazol-2-yl}methyl)-pyrrolidine-2-carboxamide] in this work. An IC50 of 0.3 µM was found for `O=C(NCc1nc(-c2ccc(C(F)(F)F)cc2)co1)[C@@H]1CCCN1S(=O)(=O)c1ccc(Cl)s1` [compound 12, (2S)-1-(5-chlorothiophene-2-sulfonyl)-N-({4-(4-(trifluoromethyl)phenyl]-oxazol-2-yl}methyl)-pyrrolidine-2-carboxamide] in this work.
